Results as given in ChEMBL document CHEMBL4043168, “The design and SAR of a novel series of 2-aminopyridine based LRRK2 inhibitors” (Bioorg Med Chem Lett, 2017).

Legend:
[1] = biological target: Serine/threonine-protein kinase TAO2 (Homo sapiens) (UniProt Q9UL54); experiment: Inhibition of TAO2 conserved Lys2 (DVKAGNILLSEPGLVK) in human PBMC at 1 uM
[2] = biological target: Phosphatidylinositol 5-phosphate 4-kinase type-2 gamma (Homo sapiens) (UniProt Q8TBX8); experiment: Inhibition of PIP4K2C ATP binding site (TLVIKEVSSEDIADMHSNLSNYHQYIVK) in human PBMC at 1 uM
[3] = biological target: Serine/threonine-protein kinase Nek6 (Homo sapiens) (UniProt Q9HC98); experiment: Inhibition of NEK6 conserved Lys2 (DIKPANVFITATGVVK) in human PBMC at 1 uM
[4] = biological target: Cyclin-dependent kinase 2 (Homo sapiens) (UniProt P24941); experiment: Inhibition of CDK2 labeling at conserved Lys2 (DLKPQNLLINTEGAIK) in human PBMC at 0.1 uM
[5] = biological target: Serine/threonine-protein kinase Nek1 (Homo sapiens) (UniProt Q96PY6); experiment: Inhibition of NEK1 conserved Lys2 (DIKSQNIFLTK) in human PBMC at 0.1 uM
[6] = biological target: T1, Inhibitor of nuclear factor kappa-B kinase subunit epsilon (Homo sapiens) (UniProt Q14164); experiment: Inhibition of IKKe conserved Lys1 (SGELVAVKVFNTTSYLRPR) in human PBMC at 1 uM
T1 sequence (whole entry): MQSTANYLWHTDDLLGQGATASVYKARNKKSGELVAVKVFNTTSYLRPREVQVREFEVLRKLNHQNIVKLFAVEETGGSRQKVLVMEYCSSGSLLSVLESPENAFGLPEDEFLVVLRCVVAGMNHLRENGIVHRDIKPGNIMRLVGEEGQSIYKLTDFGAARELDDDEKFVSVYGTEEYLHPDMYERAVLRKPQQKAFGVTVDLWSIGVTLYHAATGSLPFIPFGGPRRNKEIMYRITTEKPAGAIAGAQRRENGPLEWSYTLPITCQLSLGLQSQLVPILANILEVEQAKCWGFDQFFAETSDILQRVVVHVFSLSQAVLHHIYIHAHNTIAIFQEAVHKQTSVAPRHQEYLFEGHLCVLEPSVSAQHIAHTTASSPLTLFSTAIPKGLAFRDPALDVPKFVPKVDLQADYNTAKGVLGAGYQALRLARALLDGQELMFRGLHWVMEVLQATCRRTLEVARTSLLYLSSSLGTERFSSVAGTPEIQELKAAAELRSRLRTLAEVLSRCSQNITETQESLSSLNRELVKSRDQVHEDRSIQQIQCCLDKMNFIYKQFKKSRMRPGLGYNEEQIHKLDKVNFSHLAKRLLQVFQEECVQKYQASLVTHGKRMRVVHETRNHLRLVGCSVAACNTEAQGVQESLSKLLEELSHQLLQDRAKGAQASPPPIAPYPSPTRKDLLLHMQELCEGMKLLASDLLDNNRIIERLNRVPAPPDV

[7] = biological target: T2, Mitogen-activated protein kinase kinase kinase 6 (Homo sapiens) (UniProt O95382); experiment: Inhibition of MAP3K6 conserved Lys1 (IAIKEIPER) in human PBMC at 0.1 uM
T2 sequence (whole entry): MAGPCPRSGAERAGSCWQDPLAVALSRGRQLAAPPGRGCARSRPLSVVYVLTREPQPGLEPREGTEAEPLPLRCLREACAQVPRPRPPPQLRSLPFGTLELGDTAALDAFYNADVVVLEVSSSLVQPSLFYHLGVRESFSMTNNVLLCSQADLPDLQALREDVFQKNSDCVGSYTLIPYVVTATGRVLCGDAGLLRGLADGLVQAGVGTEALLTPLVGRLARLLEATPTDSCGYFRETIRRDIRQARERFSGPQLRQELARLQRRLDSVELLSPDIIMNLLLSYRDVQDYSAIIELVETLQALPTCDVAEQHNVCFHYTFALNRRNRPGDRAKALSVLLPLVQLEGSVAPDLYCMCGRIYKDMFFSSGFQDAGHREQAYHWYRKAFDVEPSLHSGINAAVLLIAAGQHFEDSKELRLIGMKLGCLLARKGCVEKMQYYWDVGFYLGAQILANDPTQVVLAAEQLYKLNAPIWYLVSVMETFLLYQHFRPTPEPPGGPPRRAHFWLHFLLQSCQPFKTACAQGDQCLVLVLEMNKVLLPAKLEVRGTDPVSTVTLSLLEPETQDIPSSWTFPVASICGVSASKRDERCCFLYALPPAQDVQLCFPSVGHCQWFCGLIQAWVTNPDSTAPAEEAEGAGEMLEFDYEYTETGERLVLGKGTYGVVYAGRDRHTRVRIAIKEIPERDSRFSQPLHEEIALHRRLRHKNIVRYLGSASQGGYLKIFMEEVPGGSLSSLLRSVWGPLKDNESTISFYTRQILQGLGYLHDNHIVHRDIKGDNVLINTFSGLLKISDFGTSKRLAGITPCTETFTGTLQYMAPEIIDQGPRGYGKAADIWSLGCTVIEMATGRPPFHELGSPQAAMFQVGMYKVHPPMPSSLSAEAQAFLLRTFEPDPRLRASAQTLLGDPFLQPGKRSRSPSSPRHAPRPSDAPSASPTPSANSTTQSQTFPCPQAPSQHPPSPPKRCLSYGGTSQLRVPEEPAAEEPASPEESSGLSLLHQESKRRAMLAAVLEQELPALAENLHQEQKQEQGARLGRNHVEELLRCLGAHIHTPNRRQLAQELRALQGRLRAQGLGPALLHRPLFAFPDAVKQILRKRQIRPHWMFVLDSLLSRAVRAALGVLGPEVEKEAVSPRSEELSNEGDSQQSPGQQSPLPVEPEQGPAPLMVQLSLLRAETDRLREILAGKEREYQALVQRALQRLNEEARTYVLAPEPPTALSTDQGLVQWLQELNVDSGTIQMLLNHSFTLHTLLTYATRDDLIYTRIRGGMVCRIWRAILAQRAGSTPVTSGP

[8] = biological target: Serine/threonine-protein kinase SMG1 (Homo sapiens) (UniProt Q96Q15); experiment: Inhibition of SMG1 ATP binding site (SYPYLFKGLEDLHLDER) in human PBMC at 1 uM
[9] = biological target: Ribosomal protein S6 kinase alpha-1 (Homo sapiens) (UniProt Q15418); experiment: Inhibition of RSK1 domain1 activation Loop (LTDFGLSKEAIDHEKK) in human PBMC at 0.1 uM
[10] = biological target: Tyrosine-protein kinase BTK (Homo sapiens) (UniProt Q06187); experiment: Inhibition of BTK labeling at activation Loop (YVLDDEYTSSVGSKFPVR) in human PBMC at 0.1 uM
[11] = biological target: Serine/threonine-protein kinase 24 (Homo sapiens) (UniProt Q9Y6E0); experiment: Inhibition of MST3 conserved Lys2 (DIKAANVLLSEHGEVK) in human PBMC at 0.1 uM
[12] = biological target: Phosphatidylinositol 4-kinase beta (Homo sapiens) (UniProt Q9UBF8); experiment: Inhibition of PI4KB ATP binding site (VPHTQAVVLNSKDK) in human PBMC at 1 uM
Phosphatidylinositol 4-kinase beta (Homo sapiens), sequence (Q9UBF8 2-816 limits assumed): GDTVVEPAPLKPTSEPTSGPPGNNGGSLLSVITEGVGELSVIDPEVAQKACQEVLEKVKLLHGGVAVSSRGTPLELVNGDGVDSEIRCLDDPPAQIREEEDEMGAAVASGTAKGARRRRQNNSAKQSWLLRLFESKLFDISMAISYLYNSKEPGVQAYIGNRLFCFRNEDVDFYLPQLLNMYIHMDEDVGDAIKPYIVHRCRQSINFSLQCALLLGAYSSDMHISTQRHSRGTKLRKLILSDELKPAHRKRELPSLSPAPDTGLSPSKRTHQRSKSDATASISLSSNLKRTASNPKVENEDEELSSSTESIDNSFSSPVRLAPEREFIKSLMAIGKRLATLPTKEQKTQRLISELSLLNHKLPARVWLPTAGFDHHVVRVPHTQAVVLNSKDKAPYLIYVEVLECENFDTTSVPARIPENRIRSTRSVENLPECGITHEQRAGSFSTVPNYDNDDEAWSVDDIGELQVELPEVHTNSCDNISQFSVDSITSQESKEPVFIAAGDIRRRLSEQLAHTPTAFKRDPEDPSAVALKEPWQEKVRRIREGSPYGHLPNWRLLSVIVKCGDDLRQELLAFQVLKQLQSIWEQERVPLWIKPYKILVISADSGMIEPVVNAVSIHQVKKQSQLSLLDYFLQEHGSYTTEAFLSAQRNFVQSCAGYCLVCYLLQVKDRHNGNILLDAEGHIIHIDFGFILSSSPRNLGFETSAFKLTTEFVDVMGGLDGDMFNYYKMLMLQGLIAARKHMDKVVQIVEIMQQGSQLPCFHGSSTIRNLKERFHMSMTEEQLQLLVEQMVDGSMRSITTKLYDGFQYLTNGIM

Serine/threonine-protein kinase TAO2 (Homo sapiens), sequence (Q9UL54 whole entry): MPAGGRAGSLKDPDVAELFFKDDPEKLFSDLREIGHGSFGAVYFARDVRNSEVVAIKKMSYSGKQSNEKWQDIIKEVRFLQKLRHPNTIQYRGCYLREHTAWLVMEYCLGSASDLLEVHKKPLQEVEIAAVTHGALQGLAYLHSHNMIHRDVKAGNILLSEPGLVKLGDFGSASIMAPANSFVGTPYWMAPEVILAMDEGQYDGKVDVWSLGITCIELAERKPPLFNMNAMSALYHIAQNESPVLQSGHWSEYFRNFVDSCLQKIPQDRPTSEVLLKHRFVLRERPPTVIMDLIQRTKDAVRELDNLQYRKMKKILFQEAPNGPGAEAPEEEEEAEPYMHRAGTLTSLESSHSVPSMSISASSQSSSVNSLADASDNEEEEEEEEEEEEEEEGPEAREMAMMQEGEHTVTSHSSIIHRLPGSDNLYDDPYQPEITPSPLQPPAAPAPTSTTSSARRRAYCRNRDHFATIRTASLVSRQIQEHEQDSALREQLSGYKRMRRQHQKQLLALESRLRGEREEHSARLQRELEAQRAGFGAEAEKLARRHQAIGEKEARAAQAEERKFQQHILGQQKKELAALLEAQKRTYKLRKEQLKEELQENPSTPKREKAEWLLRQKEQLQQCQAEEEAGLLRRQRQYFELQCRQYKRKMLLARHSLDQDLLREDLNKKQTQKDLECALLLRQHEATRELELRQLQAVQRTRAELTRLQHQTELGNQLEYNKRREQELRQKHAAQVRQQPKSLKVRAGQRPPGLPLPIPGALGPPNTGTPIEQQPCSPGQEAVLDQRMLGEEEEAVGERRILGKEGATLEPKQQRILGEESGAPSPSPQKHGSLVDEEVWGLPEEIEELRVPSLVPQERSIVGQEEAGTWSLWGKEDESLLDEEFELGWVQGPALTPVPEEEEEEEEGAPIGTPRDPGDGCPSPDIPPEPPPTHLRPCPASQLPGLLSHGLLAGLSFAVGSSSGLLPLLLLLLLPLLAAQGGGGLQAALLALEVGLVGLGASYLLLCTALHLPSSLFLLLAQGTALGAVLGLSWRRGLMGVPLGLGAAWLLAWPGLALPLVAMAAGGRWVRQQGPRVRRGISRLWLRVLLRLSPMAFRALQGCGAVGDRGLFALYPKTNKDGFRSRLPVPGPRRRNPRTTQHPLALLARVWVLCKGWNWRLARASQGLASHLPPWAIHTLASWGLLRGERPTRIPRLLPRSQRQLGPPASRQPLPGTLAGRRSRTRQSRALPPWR
Serine/threonine-protein kinase 24 (Homo sapiens), sequence (Q9Y6E0 whole entry, looked up): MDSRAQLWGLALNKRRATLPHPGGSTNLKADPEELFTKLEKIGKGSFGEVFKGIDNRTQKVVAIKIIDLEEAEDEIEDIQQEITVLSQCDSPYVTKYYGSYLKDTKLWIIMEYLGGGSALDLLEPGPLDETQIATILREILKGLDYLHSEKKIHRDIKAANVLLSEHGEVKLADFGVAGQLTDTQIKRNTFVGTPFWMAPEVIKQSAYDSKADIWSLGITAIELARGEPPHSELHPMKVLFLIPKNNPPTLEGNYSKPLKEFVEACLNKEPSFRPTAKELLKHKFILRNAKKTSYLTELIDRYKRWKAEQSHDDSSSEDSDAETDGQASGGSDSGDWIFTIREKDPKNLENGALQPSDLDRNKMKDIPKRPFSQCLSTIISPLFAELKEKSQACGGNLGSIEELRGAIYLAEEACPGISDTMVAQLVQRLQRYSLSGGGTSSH
Tyrosine-protein kinase BTK (Homo sapiens), sequence (Q06187 whole entry): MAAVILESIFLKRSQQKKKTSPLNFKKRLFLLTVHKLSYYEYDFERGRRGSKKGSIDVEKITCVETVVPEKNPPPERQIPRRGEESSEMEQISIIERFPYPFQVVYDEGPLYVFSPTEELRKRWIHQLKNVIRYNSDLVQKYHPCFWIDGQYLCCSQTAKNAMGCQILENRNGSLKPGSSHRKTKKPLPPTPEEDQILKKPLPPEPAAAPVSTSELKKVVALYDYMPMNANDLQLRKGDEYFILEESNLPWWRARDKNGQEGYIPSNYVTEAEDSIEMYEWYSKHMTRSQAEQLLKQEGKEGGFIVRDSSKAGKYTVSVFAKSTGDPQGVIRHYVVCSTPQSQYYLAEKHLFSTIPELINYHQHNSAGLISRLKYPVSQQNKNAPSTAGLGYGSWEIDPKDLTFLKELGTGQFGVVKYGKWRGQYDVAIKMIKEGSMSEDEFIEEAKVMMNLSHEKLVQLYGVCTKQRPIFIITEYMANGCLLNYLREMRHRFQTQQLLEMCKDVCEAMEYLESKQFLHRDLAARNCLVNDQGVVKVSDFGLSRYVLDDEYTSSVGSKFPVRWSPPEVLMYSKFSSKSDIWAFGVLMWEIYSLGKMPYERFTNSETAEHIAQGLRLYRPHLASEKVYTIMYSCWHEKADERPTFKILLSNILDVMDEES
Phosphatidylinositol 5-phosphate 4-kinase type-2 gamma (Homo sapiens), sequence (Q8TBX8 whole entry): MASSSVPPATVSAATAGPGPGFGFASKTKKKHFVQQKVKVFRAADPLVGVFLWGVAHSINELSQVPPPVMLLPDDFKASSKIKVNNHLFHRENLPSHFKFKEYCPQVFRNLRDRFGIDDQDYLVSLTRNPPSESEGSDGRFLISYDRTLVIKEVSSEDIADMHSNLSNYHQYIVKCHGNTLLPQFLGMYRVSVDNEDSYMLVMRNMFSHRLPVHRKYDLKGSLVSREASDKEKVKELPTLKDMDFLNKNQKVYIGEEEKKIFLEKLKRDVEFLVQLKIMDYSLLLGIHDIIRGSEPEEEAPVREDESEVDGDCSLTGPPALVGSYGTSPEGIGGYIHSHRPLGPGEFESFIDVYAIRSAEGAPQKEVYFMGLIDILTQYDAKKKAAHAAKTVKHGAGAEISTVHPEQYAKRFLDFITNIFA
Serine/threonine-protein kinase Nek1 (Homo sapiens), sequence (Q96PY6 whole entry): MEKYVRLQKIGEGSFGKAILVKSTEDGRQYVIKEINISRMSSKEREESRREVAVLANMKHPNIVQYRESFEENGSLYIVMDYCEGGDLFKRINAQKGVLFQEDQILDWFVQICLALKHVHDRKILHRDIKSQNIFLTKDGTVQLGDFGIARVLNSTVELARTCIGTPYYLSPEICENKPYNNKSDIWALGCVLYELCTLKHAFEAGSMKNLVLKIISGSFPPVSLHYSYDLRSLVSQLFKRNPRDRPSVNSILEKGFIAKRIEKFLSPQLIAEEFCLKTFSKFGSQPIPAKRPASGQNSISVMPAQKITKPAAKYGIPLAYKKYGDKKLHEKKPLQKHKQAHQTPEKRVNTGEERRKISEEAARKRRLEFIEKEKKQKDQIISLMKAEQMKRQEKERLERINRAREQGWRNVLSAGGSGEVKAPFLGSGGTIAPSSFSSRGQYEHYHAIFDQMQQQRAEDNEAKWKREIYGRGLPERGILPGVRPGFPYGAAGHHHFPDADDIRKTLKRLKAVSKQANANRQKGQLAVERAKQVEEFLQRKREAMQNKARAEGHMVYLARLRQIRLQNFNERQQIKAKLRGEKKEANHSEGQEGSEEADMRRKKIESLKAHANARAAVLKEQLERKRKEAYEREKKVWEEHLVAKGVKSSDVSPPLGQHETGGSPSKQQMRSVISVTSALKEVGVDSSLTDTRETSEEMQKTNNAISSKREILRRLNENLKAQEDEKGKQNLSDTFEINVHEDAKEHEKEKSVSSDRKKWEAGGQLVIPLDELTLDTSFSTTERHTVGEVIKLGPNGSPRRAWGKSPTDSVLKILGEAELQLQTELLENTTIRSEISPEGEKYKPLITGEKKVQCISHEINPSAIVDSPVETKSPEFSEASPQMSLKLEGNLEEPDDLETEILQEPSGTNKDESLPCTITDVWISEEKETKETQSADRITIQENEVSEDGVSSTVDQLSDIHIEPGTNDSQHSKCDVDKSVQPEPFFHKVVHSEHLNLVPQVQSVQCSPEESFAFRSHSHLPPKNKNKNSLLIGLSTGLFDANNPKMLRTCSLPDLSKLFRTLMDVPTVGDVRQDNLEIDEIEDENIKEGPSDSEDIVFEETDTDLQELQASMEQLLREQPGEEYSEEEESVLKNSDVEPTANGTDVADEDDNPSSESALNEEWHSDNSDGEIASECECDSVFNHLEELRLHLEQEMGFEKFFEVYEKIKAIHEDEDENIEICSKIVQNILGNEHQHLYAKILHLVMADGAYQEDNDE

Structure (SMILES): CC(C)n1cc(-c2cc(-c3ccc(CN4CCOCC4)cc3)cnc2N)nn1
- inhibition [1]: -3.8%
- inhibition [2]: 6.4%
- inhibition [3]: -9.6%
- inhibition [4]: 19.2%
- inhibition [5]: 5.5%
- inhibition [6]: 5.5%
- inhibition [7]: -0.5%
- inhibition [8]: 6.6%
- inhibition [9]: 17.2%
- inhibition [10]: 14.2%
- inhibition [11]: 11%
- inhibition [12]: 2.2%
